Assay: molar heat capacity at constant pressure; mn = molality of the nth substance listed, in mol/kg
Details: 100 kPa, Liquid, DSC

O=S(=O)([O-])[O-].[Mg+2] [magnesium sulfate] + O
molar heat capacity at constant pressure [J/K/mol]
Details | m1 = 0.0546 | m1 = 0.1089 | m1 = 0.213 | m1 = 0.526 | m1 = 1.001 | m1 = 1.502 | m1 = 2.012 | m1 = 2.495 | m1 = 2.775
248.15 K | – | – | – | – | – | – | 67.27 | 67.05 | 67.13
253.15 K | – | – | – | – | – | 68.74 | 67.94 | 67.75 | 67.86
258.15 K | – | – | – | 72.91 | – | 69.24 | 68.52 | 68.37 | 68.51
263.15 K | 76.21 | – | – | 72.94 | 70.95 | 69.74 | 69.11 | 68.98 | 69.12
268.15 K | 75.8 | 75.41 | 74.68 | 73 | 71.26 | 70.17 | 69.62 | 69.54 | 69.7
273.15 K | 75.56 | 75.23 | 74.58 | 73.08 | 71.54 | 70.59 | 70.1 | 70.03 | 70.24
278.15 K | 75.36 | 75.07 | 74.49 | 73.15 | 71.78 | 70.94 | 70.49 | 70.46 | 70.7
283.15 K | 75.24 | 74.96 | 74.44 | 73.23 | 71.98 | 71.23 | 70.88 | 70.89 | 71.11
288.15 K | 75.16 | 74.9 | 74.44 | 73.34 | 72.23 | 71.56 | 71.27 | 71.27 | 71.57
293.15 K | 75.09 | 74.85 | 74.42 | 73.44 | 72.41 | 71.83 | 71.57 | 71.63 | 71.94
298.15 K | 75.05 | 74.83 | 74.44 | 73.55 | 72.65 | 72.12 | 71.91 | 72.01 | 72.35
